Test system: A375_aEGFR2
Test: pERK immunofluorescence normalised to no-drug reference (=1); higher = more ERK phosphorylation (less pathway inhibition)
Details: drug treatment time 24 h, EGF time 8 h
Experimental: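 A375 CRISPRa-EGFR (A375_aEGFR2) or HT29 cells were treated with two-drug dose combinations (vemurafenib, LY3009120, cobimetinib) for 24 h, then stimulated with EGF (100 ng/mL) or mock medium for 8 h. pERK (T202/Y204) was measured by immunofluorescence as the cytosolic population average, normalised to an untreated no-drug reference of the block (=1). Averages of 2 technical replicates. A375 in 5% FBS, HT29 in 10% FBS.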

CCCS(=O)(=O)Nc1ccc(F)c(C(=O)c2c[nH]c3ncc(-c4ccc(Cl)cc4)cc23)c1F [Vemurafenib] + O=C(c1ccc(F)c(F)c1Nc1ccc(I)cc1F)N1CC(O)([C@@H]2CCCCN2)C1 [Cobimetinib]
pERK immunofluorescence normalised
Details | EGF 0 ng/mL | EGF 100 ng/mL
drug A concentration 0 µM, drug B concentration 31.62 pM | 1.03 | 1.05
drug A concentration 0 µM, drug B concentration 0.0001 µM | 1 | 1.07
drug A concentration 0 µM, drug B concentration 0.000316228 µM | 1 | 1.02
drug A concentration 0 µM, drug B concentration 0.001 µM | 0.917 | 1.01
drug A concentration 0 µM, drug B concentration 0.00316228 µM | 0.732 | 0.906
drug A concentration 0 µM, drug B concentration 0.01 µM | 0.399 | 0.695
drug A concentration 0 µM, drug B concentration 0.0316228 µM | 0.188 | 0.526
drug A concentration 0 µM, drug B concentration 0.1 µM | 0.147 | 0.468
drug A concentration 0 µM, drug B concentration 0.316228 µM | 0.141 | 0.347
drug A concentration 0 µM, drug B concentration 1 µM | 0.137 | 0.196
drug A concentration 0.000316228 µM, drug B concentration 0 µM | 1.01 | 1.04
drug A concentration 0.000316228 µM, drug B concentration 31.62 pM | 1.01 | 1.03
drug A concentration 0.000316228 µM, drug B concentration 0.0001 µM | 1.01 | 1.02
drug A concentration 0.000316228 µM, drug B concentration 0.000316228 µM | 0.984 | 1.02
drug A concentration 0.000316228 µM, drug B concentration 0.001 µM | 0.915 | 0.936
drug A concentration 0.000316228 µM, drug B concentration 0.00316228 µM | 0.687 | 0.804
drug A concentration 0.000316228 µM, drug B concentration 0.01 µM | 0.383 | 0.605
drug A concentration 0.000316228 µM, drug B concentration 0.0316228 µM | 0.175 | 0.498
drug A concentration 0.000316228 µM, drug B concentration 0.1 µM | 0.152 | 0.425
drug A concentration 0.000316228 µM, drug B concentration 0.316228 µM | 0.138 | 0.289
drug A concentration 0.000316228 µM, drug B concentration 1 µM | 0.14 | 0.179
drug A concentration 0.001 µM, drug B concentration 0 µM | 1.01 | 1.05
drug A concentration 0.001 µM, drug B concentration 31.62 pM | 1.02 | 1.04
drug A concentration 0.001 µM, drug B concentration 0.0001 µM | 1.01 | 1.02
drug A concentration 0.001 µM, drug B concentration 0.000316228 µM | 0.958 | 1.05
drug A concentration 0.001 µM, drug B concentration 0.001 µM | 0.857 | 0.99
drug A concentration 0.001 µM, drug B concentration 0.00316228 µM | 0.631 | 0.816
drug A concentration 0.001 µM, drug B concentration 0.01 µM | 0.328 | 0.621
drug A concentration 0.001 µM, drug B concentration 0.0316228 µM | 0.172 | 0.518
drug A concentration 0.001 µM, drug B concentration 0.1 µM | 0.142 | 0.443
drug A concentration 0.001 µM, drug B concentration 0.316228 µM | 0.139 | 0.3
drug A concentration 0.001 µM, drug B concentration 1 µM | 0.137 | 0.172
drug A concentration 0.00316228 µM, drug B concentration 0 µM | 1.02 | 1.06
drug A concentration 0.00316228 µM, drug B concentration 31.62 pM | 0.976 | 1.05
drug A concentration 0.00316228 µM, drug B concentration 0.0001 µM | 0.987 | 1.06
drug A concentration 0.00316228 µM, drug B concentration 0.000316228 µM | 0.943 | 0.991
drug A concentration 0.00316228 µM, drug B concentration 0.001 µM | 0.874 | 0.935
drug A concentration 0.00316228 µM, drug B concentration 0.00316228 µM | 0.623 | 0.81
drug A concentration 0.00316228 µM, drug B concentration 0.01 µM | 0.306 | 0.625
drug A concentration 0.00316228 µM, drug B concentration 0.0316228 µM | 0.164 | 0.525
drug A concentration 0.00316228 µM, drug B concentration 0.1 µM | 0.149 | 0.435
drug A concentration 0.00316228 µM, drug B concentration 0.316228 µM | 0.141 | 0.285
drug A concentration 0.00316228 µM, drug B concentration 1 µM | 0.138 | 0.166
drug A concentration 0.01 µM, drug B concentration 0 µM | 0.986 | 1.03
drug A concentration 0.01 µM, drug B concentration 31.62 pM | 0.927 | 1.02
drug A concentration 0.01 µM, drug B concentration 0.0001 µM | 0.905 | 0.991
drug A concentration 0.01 µM, drug B concentration 0.000316228 µM | 0.875 | 1.01
drug A concentration 0.01 µM, drug B concentration 0.001 µM | 0.814 | 0.909
drug A concentration 0.01 µM, drug B concentration 0.00316228 µM | 0.534 | 0.765
drug A concentration 0.01 µM, drug B concentration 0.01 µM | 0.292 | 0.613
drug A concentration 0.01 µM, drug B concentration 0.0316228 µM | 0.198 | 0.503
drug A concentration 0.01 µM, drug B concentration 0.1 µM | 0.144 | 0.417
drug A concentration 0.01 µM, drug B concentration 0.316228 µM | 0.139 | 0.29
drug A concentration 0.01 µM, drug B concentration 1 µM | 0.138 | 0.165
drug A concentration 0.0316228 µM, drug B concentration 0 µM | 0.881 | 1
drug A concentration 0.0316228 µM, drug B concentration 31.62 pM | 0.842 | 0.991
drug A concentration 0.0316228 µM, drug B concentration 0.0001 µM | 0.795 | 0.944
drug A concentration 0.0316228 µM, drug B concentration 0.000316228 µM | 0.753 | 0.892
drug A concentration 0.0316228 µM, drug B concentration 0.001 µM | 0.666 | 0.834
drug A concentration 0.0316228 µM, drug B concentration 0.00316228 µM | 0.441 | 0.692
drug A concentration 0.0316228 µM, drug B concentration 0.01 µM | 0.228 | 0.567
drug A concentration 0.0316228 µM, drug B concentration 0.0316228 µM | 0.161 | 0.495
drug A concentration 0.0316228 µM, drug B concentration 0.1 µM | 0.145 | 0.414
drug A concentration 0.0316228 µM, drug B concentration 0.316228 µM | 0.14 | 0.282
drug A concentration 0.0316228 µM, drug B concentration 1 µM | 0.138 | 0.164
drug A concentration 0.1 µM, drug B concentration 0 µM | 0.659 | 0.851
drug A concentration 0.1 µM, drug B concentration 31.62 pM | 0.542 | 0.79
drug A concentration 0.1 µM, drug B concentration 0.0001 µM | 0.539 | 0.787
drug A concentration 0.1 µM, drug B concentration 0.000316228 µM | 0.489 | 0.774
drug A concentration 0.1 µM, drug B concentration 0.001 µM | 0.404 | 0.672
drug A concentration 0.1 µM, drug B concentration 0.00316228 µM | 0.285 | 0.615
drug A concentration 0.1 µM, drug B concentration 0.01 µM | 0.186 | 0.553
drug A concentration 0.1 µM, drug B concentration 0.0316228 µM | 0.149 | 0.525
drug A concentration 0.1 µM, drug B concentration 0.1 µM | 0.146 | 0.407
drug A concentration 0.1 µM, drug B concentration 0.316228 µM | 0.14 | 0.283
drug A concentration 0.1 µM, drug B concentration 1 µM | 0.14 | 0.161
drug A concentration 0.316228 µM, drug B concentration 0 µM | 0.362 | 0.697
drug A concentration 0.316228 µM, drug B concentration 31.62 pM | 0.311 | 0.647
drug A concentration 0.316228 µM, drug B concentration 0.0001 µM | 0.28 | 0.635
drug A concentration 0.316228 µM, drug B concentration 0.000316228 µM | 0.264 | 0.643
drug A concentration 0.316228 µM, drug B concentration 0.001 µM | 0.235 | 0.6
drug A concentration 0.316228 µM, drug B concentration 0.00316228 µM | 0.187 | 0.584
drug A concentration 0.316228 µM, drug B concentration 0.01 µM | 0.161 | 0.557
drug A concentration 0.316228 µM, drug B concentration 0.0316228 µM | 0.146 | 0.502
drug A concentration 0.316228 µM, drug B concentration 0.1 µM | 0.142 | 0.388
drug A concentration 0.316228 µM, drug B concentration 0.316228 µM | 0.139 | 0.27
drug A concentration 0.316228 µM, drug B concentration 1 µM | 0.139 | 0.157
drug A concentration 1 µM, drug B concentration 0 µM | 0.211 | 0.639
drug A concentration 1 µM, drug B concentration 31.62 pM | 0.195 | 0.623
drug A concentration 1 µM, drug B concentration 0.0001 µM | 0.192 | 0.614
drug A concentration 1 µM, drug B concentration 0.000316228 µM | 0.189 | 0.614
drug A concentration 1 µM, drug B concentration 0.001 µM | 0.175 | 0.603
drug A concentration 1 µM, drug B concentration 0.00316228 µM | 0.169 | 0.615
drug A concentration 1 µM, drug B concentration 0.01 µM | 0.147 | 0.571
drug A concentration 1 µM, drug B concentration 0.0316228 µM | 0.142 | 0.494
drug A concentration 1 µM, drug B concentration 0.1 µM | 0.141 | 0.382
drug A concentration 1 µM, drug B concentration 0.316228 µM | 0.138 | 0.245
drug A concentration 1 µM, drug B concentration 1 µM | 0.141 | 0.153
drug A concentration 3.16228 µM, drug B concentration 0 µM | 0.171 | 0.647
drug A concentration 3.16228 µM, drug B concentration 31.62 pM | 0.161 | 0.666
drug A concentration 3.16228 µM, drug B concentration 0.0001 µM | 0.172 | 0.648
drug A concentration 3.16228 µM, drug B concentration 0.000316228 µM | 0.158 | 0.647
drug A concentration 3.16228 µM, drug B concentration 0.001 µM | 0.152 | 0.635
drug A concentration 3.16228 µM, drug B concentration 0.00316228 µM | 0.147 | 0.614
drug A concentration 3.16228 µM, drug B concentration 0.01 µM | 0.146 | 0.532
drug A concentration 3.16228 µM, drug B concentration 0.0316228 µM | 0.14 | 0.464
drug A concentration 3.16228 µM, drug B concentration 0.1 µM | 0.139 | 0.305
drug A concentration 3.16228 µM, drug B concentration 0.316228 µM | 0.139 | 0.179
drug A concentration 3.16228 µM, drug B concentration 1 µM | 0.14 | 0.138
drug A concentration 10 µM, drug B concentration 0 µM | 0.154 | 0.664
drug A concentration 10 µM, drug B concentration 31.62 pM | 0.152 | 0.616
drug A concentration 10 µM, drug B concentration 0.0001 µM | 0.148 | 0.612
drug A concentration 10 µM, drug B concentration 0.000316228 µM | 0.149 | 0.579
drug A concentration 10 µM, drug B concentration 0.001 µM | 0.147 | 0.584
drug A concentration 10 µM, drug B concentration 0.00316228 µM | 0.149 | 0.546
drug A concentration 10 µM, drug B concentration 0.01 µM | 0.147 | 0.476
drug A concentration 10 µM, drug B concentration 0.0316228 µM | 0.141 | 0.36
drug A concentration 10 µM, drug B concentration 0.1 µM | 0.14 | 0.209
drug A concentration 10 µM, drug B concentration 0.316228 µM | 0.141 | 0.146
drug A concentration 10 µM, drug B concentration 1 µM | 0.146 | 0.138

Source: the supplement of paper PMC9912026
